BigSolDB 2.1

## C[C@]12CC[C@H](O)CC1=CC[C@@H]1[C@@H]2CC[C@]2(C)C(c3cccnc3)=CC[C@@H]12
In THF, 296 K
  solubility (mole fraction): 0.00249
In THF, 310 K
  solubility (mole fraction): 0.00393
In acetonitrile, 296 K
  solubility (mole fraction): 4.44e-05
In acetonitrile, 310 K
  solubility (mole fraction): 6.46e-05
In ethanol, 296 K
  solubility (mole fraction): 0.00102
In ethanol, 310 K
  solubility (mole fraction): 0.00126
In isopropanol, 296 K
  solubility (mole fraction): 0.00168
In isopropanol, 310 K
  solubility (mole fraction): 0.0015
In methanol, 296 K
  solubility (mole fraction): 0.000523
In methanol, 310 K
  solubility (mole fraction): 0.000656
In n-propanol, 296 K
  solubility (mole fraction): 0.00178
In n-propanol, 310 K
  solubility (mole fraction): 0.00256

## CC(=O)O[C@H]1CC[C@@]2(C)C(=CC[C@@H]3[C@@H]2CC[C@]2(C)C(c4cccnc4)=CC[C@@H]32)C1
In acetone, 296 K
  solubility (mole fraction): 0.0128
In acetone, 310 K
  solubility (mole fraction): 0.0181
In acetonitrile, 296 K
  solubility (mole fraction): 0.0021
In acetonitrile, 310 K
  solubility (mole fraction): 0.0027
In ethanol, 296 K
  solubility (mole fraction): 0.0111
In ethanol, 310 K
  solubility (mole fraction): 0.0127
In isopropanol, 296 K
  solubility (mole fraction): 0.0133
In isopropanol, 310 K
  solubility (mole fraction): 0.0145
In methanol, 296 K
  solubility (mole fraction): 0.00544
In methanol, 310 K
  solubility (mole fraction): 0.00648
In n-propanol, 296 K
  solubility (mole fraction): 0.0242
In n-propanol, 310 K
  solubility (mole fraction): 0.0279
